pEC50, pIC50: −log10 of the molar value. Read-outs that look alike come from different tables or passages of the source.
What was measured:
[1] = tested on: SW620; assay: Combination assay, SW620; assay type: cell-based, human; conditions: SW620, chemotherapeutic alone, read-out: Chemo GI50
Protocol: (§1) The combination index (CI) of combinations of certain example compounds and various chemotherapeutic agents in the CellTitetI-Glo® in vitro cell proliferation assays may be tested. A combination index score is calculated by the Chou and Talalay method (CalcuSyn software, Biosoft). The strength of synergy is scored using the ranking system Chou and Talalay: CI less than 0.8 indicates synergy, CI between 0.8 and 1.2 indicates additivity and CI greater than 1.2 indicates antagonism.
(§2) The EC50 values of representative combinations are also calculated. The individually measured EC50 values of the chemotherapeutic agent and the example compounds are compared to the EC50 value of the combination. The cell lines are characterised by tumor type. Combination assays are performed as described in: “Pim 1 kinase inhibitor ETP-45299 suppresses cellular proliferation and synergizes with PI3K inhibition”. Blanco-Aparicio, Carmen; Collazo, Ana Maria Garcia; Oyarzabal, Julen; Leal, Juan F.; Albaran, Maria Isabel; Lima, Francisco Ramos; Pequeno, Belen; Ajenjo, Nuria; Becerra, Mercedes; Alfonso, Patricia; Reymundo, Maria Isabel; Palacios, Irene; Mateos, Genoveva; Quinones, Helena; Corrionero, Ana; Carnero, Amancio; Pevarello, Paolo; Lopez, Ana Rodriguez; Fominaya, Jesus; Pastor, Joaquin; Bischoff, James R. Cancer Letters (Shannon, Ireland) 2011, 300(2), 145-153

[2] = biological target: CDK8/Cyclin C (Homo sapiens (Human), UniProt P49336); assay: CDK8/Cyclin C binding assay (LanthaScreen Eu-Kinase Binding Assay); conditions: binding assay
Protocol: The enzyme has been purchase from Invitrogen (PV4402) as a dimer of full-length His-tagged recombinant human proteins.
(§3) Assays were performed in 384-well plates. The final read out was generated using an EnVision plate reader (Perkin-Elmer).

[3] = biological target: Haspin kinase (Homo sapiens (Human), UniProt Q8TF76); assay: Haspin kinase assay (ADP-Glo); assay type: biochemical; conditions: ATP 150 μM
Description: The kinase assay relies on ADP-Glo^KM biochemical kinase assay (Promega). This is a luminescent kinase assay that measures ADP formed from a kinase reaction. Then ADP is converted into ATP, which is transformed into a light signal by Ultra-Glo™ Luciferase. The luminescent signal positively correlates with kinase activity. The assay measures the intrinsic ATPase activity (in the absence of peptidic substrate as phosphate acceptor).
The enzyme was purchase from Invitrogen (PV5708) as the kinase domain of GST tagged recombinant human proteins.
Assay conditions were as indicated by the kit manufacturers with the following adaptations: • Assay buffer: 15 mM HEPES pH 7.4, 20 mM NaCl, 1 mM EGTA, 0.02% Tween 20, 10 mM MgCl2, 0.1 mg/ml BGG • Assay volume: 20 μl • Incubation time and temperature: 60 min at 30° C. • Haspin concentration: 20 nM • ATP concentration: 150 μM • Tested compound: Serial 1:3 dilutions • Final DMSO concentration in the assay: 1%
Assays were performed in 384-well plates. The final read out was generated using an EnVision plate reader (Perkin-Elmer). Luminescent relative units are normalized against the control activity included for each compound (i.e., 100% Haspin activity, without compound) and the percentage of inhibition is calculated.

[4] = biological target: CDK19/Cyclin C (Homo sapiens (Human), UniProt Q9BWU1); assay: CDK19/Cyclin C binding assay (LanthaScreen Eu-Kinase Binding Assay); conditions: read-out: CDK19-CYCC IC50
Protocol: The binding assay relies on the LanthaScreen™ Eu-Kinase Binding Assay (Invitrogen).
Assay conditions were as indicated by the kit manufacturers with the following adaptations: • Assay buffer: 50 mM HEPES, pH 7.5, 1 mM EGTA, 0.01% Brij-35, 10 mM MgCl2 • Assay volume: 20 μl • Incubation time and temperature: 60 min at 25° C. • Cdk19-Cyclin C concentration: 2 nM • Tracer concentration: 20 nM • (Eu)-labelled anti-GST antibody concentration: 2 nM • Tested compound: Serial 1:3 dilutions • Final DMSO concentration in the assay: 1%
as §3

[5] = biological target: T1, intracellular CDK8 (Homo sapiens (Human), UniProt P49336); assay: Endogenous phosphoSTAT1 inhibition in SW620 cells growing in 10% FBS; assay type: cell-based; conditions: semiquantitative, read-out: SW620 P-STAT1(S727)
Protocol: Endogenous phosphoSTAT1 inhibition can be screened in cells growing in 10% FBS. Cells are plated as described before and treated for 8 h with compounds as described before. Then cells are lysated and phospho STAT1 is evaluated as described before. The percentage of phosphorylated STAT1 vs total STAT1 in cells treated with DMSO is taken as hundred percent of phosphorylation. The percentage of STAT1 phosphorylation is finally plotted against concentration for each compound and EC50s for intracellular CDK8 inhibition are calculated using ActivityBase from IDBS.

[6] = tested on: MV4:11; assay: In vitro cell proliferation assay (CellTiter-Glo), MV4:11; assay type: cell-based
Protocol: (§4) The in vitro potency of the compounds was measured by the cell proliferation assay CellTiter-Glo® Luminescent Cell Viability Assay, commercially available from Promega Corp., Madison, Wis. This homogeneous assay method is based on the recombinant expression of Coleoptera luciferase (U.S. Pat. No. 5,583,024; U.S. Pat. No. 5,674,713; U.S. Pat. No. 5,700,670) and determines the number of viable cells in culture based on quantitation of the ATP present, an indicator of metabolically active cells (Crouch et al (1993) J. Immunol. Meth. 160:81-88; U.S. Pat. No. 6,602,677). The CellTiterGlo® Assay was conducted […] it amenable to automated high throughput screening (HTS) (Cree et al (1995) AntiCancer Drugs 6:398-404).
(§5) The homogeneous assay procedure involves adding the single reagent (CellTiter-Glo® Reagent) directly to cells cultured in serum-supplemented medium. Cell washing, removal of medium and multiple pipetting steps are not required. The system detects as few as 15 cells/well in a 96-well format in 10 minutes after adding reagent and mixing.
(§6) The homogeneous “add-mix-measure” format results in cell lysis and generation of a luminescent signal proportional to the amount of ATP present. The amount of ATP is directly proportional to the number of cells present in culture. The CellTiter-Glo® Assay generates a “glow-type” luminescent signal, produced by the luciferase reaction, which has a half-life generally greater than five hours, depending on cell type and medium used. Viable cells are reflected in relative luminescence units (RLU). The substrate, Beetle Luciferin, is oxidatively decarboxylated by recombinant firefly luciferase with concomitant conversion of ATP to AMP and generation of photons. The extended half-life eliminates the need to use reagent injectors and provides flexibility for continuous or batch mode processing of multiple plates. This cell proliferation assay can be used with various multiwell formats, e.g. 96 or 384 well format. Data can be recorded by luminometer or CCD camera imaging device. The luminescence output is presented as relative light units (RLU), measured over time.

[7] = tested on: MDA-MB-231; assay: In vitro cell proliferation assay (CellTiter-Glo), MDA-MB-231; assay type: cell-based
Protocol: as §4, §5, §6

[8] = tested on: SW620; assay: In vitro cell proliferation assay (CellTiter-Glo), SW620; assay type: cell-based, human
Protocol: as §4, §5, §6

[9] = tested on: Molm13; assay: In vitro cell proliferation assay (CellTiter-Glo), Molm13; assay type: cell-based
Protocol: as §4, §5, §6

[10] = biological target: T1, intracellular CDK8; assay: Cellular CDK8 inhibition assay, western blot P-STAT1 (S727) in IFN-γ treated SW620 cells; assay type: cell-based; conditions: SW620, IFNγ treated, semiquantitative; read-out: SW620 P-STAT1(S727) w IFNγ
Protocol: Compounds can be screened for their ability to inhibit intracellular CDK8 using a western blot assay to detect phosphorylation of the CDK8 substrate STAT1 (S727) in IFN-γ treated cells. SW620 cells are plated at 1*10^6 cells per well in 6-well plates (Solmeglas 13118) in RPMI media (Sigma-Aldrich R6504) supplemented with 10% foetal bovine serum (Sigma-Aldrich F7524), Penicillin/Streptomycin solution diluted 1:100 (Gibco 15070-063), and fungizone (Gibco, 15290-018), and allowed to adhere overnight at 37° C. in 5% CO2. Compounds are then added to the cell media from a final concentration of 10 μM in 10-fold serial dilutions and the cells are incubated at 37° C. in 5% CO2. After 1 hour, IFNγ (R&D systems Ref. RYD-285-IF-100) is added to a final concentration of […]. After 3 hours of treatment with IFNγ, the cells are washed in PBS, lysed adding 100 μl of protein lysis buffer (62.5 mM Tris pH 6.8 al 6.25%, 2% SDS y 10% glycerol) incubation 10 minutes at room temperature and heating at 95° C. 10 min. The protein content of the lysates is determined by DC protein assay (Biorad, Ref. 5000116). The proteins are resolved by SDS-PAGE and transferred to nitrocellulose membrane (VWR International eurolab, Ref. 732-4007). The membranes are incubated overnight at 4° C. with antibodies specific for total STAT1 (BD Transduction laboratory #610115), phosphoserine-727 STAT1 (Cell Signaling Ref. 9177) they are washed and then incubated with IRDye800 conjugated anti-mouse (Pierce/Cultek, 35521) and Alexa Fluor 680 goat anti-rabbit IgG secondary antibodies (Invitrogen, A21076). The bands are visualized and quantified using an Odyssey infrared imaging system (Li-Cor Biosciences). The percentage of phosphorylated STAT1 vs total STAT1 in cells treated with IFNγ is taken as hundred percent of phosphorylation. The percentage of STAT1 phosphorylation is finally plotted against concentration for each compound and EC50s for intracellular CDK8 inhibition are calculated using ActivityBase from IDBS.

[11] = tested on: HCT116; assay: Combination assay, HCT116; assay type: cell-based; conditions: Homo sapiens, HCT-116; HCT116, chemotherapeutic alone; read-out: Chemo GI50
Protocol: as §1, §2

[12] = Homo sapiens, MV4-11, growth inhibition, semiquantitative, read-out: GI50 MV4:11
[13] = Homo sapiens, MDA-MB-231, growth inhibition, semiquantitative, read-out: GI50 MDA-MB-231
[14] = Homo sapiens, SW-620, growth inhibition, semiquantitative, read-out: GI50 SW620
[15] = Homo sapiens, MOLM-13, growth inhibition, semiquantitative, read-out: GI50 Molm13

Haspin kinase, sequence (Q8TF76 484-798): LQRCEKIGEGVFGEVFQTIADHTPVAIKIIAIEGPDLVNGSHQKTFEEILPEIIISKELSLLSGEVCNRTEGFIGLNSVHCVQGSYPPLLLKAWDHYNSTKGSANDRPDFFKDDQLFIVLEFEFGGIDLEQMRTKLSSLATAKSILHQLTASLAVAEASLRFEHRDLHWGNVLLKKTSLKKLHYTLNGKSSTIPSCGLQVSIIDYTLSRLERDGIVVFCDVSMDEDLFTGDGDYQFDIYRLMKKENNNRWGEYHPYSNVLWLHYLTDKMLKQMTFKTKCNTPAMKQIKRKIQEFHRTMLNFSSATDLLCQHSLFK
CDK19/Cyclin C, sequence (Q9BWU1 whole entry): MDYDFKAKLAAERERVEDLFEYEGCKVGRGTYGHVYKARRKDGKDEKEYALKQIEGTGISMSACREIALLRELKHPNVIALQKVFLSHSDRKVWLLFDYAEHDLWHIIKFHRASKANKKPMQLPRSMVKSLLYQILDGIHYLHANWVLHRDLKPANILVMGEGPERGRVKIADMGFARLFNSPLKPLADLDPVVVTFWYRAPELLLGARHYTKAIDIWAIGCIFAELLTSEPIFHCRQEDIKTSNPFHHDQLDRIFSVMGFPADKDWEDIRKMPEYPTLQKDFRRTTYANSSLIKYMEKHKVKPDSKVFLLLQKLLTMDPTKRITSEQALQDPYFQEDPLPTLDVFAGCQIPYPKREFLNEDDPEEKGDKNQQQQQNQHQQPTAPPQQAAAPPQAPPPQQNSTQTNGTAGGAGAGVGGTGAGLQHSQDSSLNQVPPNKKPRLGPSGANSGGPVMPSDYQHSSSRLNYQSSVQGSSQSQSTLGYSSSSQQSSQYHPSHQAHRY
CDK19/Cyclin C, sequence (P24863 whole entry partner): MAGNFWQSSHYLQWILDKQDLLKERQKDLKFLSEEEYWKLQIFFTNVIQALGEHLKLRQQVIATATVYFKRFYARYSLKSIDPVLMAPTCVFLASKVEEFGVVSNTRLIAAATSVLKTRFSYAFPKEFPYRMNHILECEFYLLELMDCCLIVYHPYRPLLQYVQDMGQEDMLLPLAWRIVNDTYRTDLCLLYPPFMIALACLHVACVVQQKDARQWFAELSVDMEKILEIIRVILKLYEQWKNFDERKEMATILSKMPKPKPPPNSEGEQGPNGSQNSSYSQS
CDK8/Cyclin C, sequence (P49336 whole entry): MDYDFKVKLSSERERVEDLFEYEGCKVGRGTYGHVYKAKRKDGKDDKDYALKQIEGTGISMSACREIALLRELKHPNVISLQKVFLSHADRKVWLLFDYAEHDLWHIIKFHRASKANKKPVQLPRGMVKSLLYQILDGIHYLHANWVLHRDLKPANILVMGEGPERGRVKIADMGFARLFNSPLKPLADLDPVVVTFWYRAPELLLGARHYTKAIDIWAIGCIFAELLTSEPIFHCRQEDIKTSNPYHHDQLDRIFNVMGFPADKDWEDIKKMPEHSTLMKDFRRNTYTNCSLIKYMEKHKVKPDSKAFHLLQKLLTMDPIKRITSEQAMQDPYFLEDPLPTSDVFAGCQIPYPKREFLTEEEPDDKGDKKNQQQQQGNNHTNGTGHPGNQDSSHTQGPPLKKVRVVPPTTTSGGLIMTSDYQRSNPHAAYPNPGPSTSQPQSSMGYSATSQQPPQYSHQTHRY
CDK8/Cyclin C, sequence (P24863 whole entry partner): as the sequence (P24863 whole entry partner) above
T1 sequence (P49336 whole entry): as the sequence (P49336 whole entry) above
T1 sequence (P24863 whole entry partner): as the sequence (P24863 whole entry partner) above
T1 sequence (Q93074 whole entry partner): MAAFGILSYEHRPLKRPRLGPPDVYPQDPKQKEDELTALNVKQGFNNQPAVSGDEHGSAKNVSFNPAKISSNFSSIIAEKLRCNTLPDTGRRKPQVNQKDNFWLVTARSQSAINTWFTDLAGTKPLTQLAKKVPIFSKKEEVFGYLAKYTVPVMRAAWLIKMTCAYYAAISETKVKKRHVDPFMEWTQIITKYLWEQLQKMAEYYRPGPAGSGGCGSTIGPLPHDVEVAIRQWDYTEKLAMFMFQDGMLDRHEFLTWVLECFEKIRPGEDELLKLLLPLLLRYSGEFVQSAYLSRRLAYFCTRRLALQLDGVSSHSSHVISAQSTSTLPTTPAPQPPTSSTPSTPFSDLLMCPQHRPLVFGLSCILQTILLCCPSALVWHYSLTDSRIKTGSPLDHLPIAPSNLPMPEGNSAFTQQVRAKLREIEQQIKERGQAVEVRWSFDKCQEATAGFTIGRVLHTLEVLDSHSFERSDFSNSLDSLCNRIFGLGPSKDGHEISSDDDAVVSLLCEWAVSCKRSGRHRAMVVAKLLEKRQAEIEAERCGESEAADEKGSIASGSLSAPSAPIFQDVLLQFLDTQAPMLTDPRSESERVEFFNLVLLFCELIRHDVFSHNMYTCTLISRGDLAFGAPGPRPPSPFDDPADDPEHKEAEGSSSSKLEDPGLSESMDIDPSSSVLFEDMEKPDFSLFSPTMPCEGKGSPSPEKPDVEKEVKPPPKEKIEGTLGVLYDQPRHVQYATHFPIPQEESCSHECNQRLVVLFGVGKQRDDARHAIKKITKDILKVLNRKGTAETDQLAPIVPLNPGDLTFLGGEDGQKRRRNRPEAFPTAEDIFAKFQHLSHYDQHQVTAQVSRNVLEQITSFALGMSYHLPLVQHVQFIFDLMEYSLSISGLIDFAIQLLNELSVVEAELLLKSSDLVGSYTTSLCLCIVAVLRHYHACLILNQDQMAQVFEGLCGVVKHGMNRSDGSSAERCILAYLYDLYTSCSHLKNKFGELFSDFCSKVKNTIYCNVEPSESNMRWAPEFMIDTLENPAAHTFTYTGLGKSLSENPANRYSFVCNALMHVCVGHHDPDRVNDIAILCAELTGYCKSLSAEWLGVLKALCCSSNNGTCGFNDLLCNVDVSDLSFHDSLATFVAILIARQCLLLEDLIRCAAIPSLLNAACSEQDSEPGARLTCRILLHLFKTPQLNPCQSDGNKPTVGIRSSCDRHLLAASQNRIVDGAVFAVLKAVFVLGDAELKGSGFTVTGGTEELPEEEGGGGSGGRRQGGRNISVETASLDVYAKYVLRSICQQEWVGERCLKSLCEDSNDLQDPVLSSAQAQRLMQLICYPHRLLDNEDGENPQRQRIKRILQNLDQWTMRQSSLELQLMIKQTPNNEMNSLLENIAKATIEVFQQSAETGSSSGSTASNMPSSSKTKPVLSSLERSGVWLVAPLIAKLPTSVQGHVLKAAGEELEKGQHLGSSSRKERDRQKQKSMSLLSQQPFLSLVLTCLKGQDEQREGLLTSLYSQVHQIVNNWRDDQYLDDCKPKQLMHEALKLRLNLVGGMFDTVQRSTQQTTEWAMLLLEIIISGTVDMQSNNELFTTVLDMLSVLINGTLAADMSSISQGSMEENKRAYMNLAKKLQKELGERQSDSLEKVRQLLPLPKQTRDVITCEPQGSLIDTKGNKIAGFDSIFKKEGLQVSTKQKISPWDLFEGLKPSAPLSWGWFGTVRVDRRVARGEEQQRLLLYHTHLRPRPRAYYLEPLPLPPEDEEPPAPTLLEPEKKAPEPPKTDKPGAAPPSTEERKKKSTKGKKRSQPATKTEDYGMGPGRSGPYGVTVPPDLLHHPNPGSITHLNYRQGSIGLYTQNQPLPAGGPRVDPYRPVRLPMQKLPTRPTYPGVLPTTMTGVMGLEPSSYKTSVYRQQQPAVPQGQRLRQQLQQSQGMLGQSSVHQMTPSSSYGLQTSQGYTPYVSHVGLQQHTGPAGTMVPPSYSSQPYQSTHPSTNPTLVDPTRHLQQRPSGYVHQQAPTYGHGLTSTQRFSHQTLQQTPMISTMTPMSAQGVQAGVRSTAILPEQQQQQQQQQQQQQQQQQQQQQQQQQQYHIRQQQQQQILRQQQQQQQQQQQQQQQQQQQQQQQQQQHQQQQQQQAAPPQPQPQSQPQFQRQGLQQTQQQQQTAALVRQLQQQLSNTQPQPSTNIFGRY

Structure (SMILES) | pIC50 [2] | pIC50 [3] | pIC50 [4] | pEC50 [5] | GI50 [6, 12] | GI50 [7, 13] | GI50 [8, 14] | GI50 [9, 15] | further results
COc1ccc(S(=O)(=O)Nc2cccnc2Nc2ccc(O)cc2)cc1 [ABT-751, reference compound] | – | – | – | – | – | – | – | – | GI50 ([1]; Homo sapiens, SW-620): 0.5 µM
CC1(C)Oc2cnccc2-c2[nH]c(C(N)=O)c(C3CC3)c21 [Example 86] | 8.36 | 7.46 | 9.32 | > 6.30 | < 1 µM | 1 to 10 µM | 1 to 10 µM | 1 to 10 µM | –
NC(=O)c1cc2c([nH]1)-c1ccncc1OC21CCC1 [Example 15] | 8.71 | 7.80 | 8.85 | > 6.30 | < 1 µM | 1 to 10 µM | 10 to 100 µM | < 1 µM | –
NC(=O)c1cc2c([nH]1)-c1ccncc1O[C@@H]2C1CCCCC1 (single isomer, unassigned) [Example 69] | 7.71 | – | 7.06 | – | < 1 µM | 1 to 10 µM | < 1 µM | < 1 µM | pEC50 [10]: > 6.30
CCn1c(C(N)=O)cc2c1-c1ccncc1OC21CCCCC1 [Example 80] | 9.50 | – | 9.11 | > 6.30 | < 1 µM | 1 to 10 µM | 1 to 10 µM | < 1 µM | –
O=C1[O][Pt]2([NH][C@@H]3CCCC[C@H]3[NH]2)[O]C1=O [Oxaliplatin, oxaliplatin, reference compound] | – | – | – | – | – | – | – | – | GI50 [1]: 5 µM
CCn1c(C(N)=O)cc2c1-c1ccncc1O[C@H]2C1CCCCC1 (single isomer, unassigned) [Example 89] | 9.39 | 7.02 | 8.85 | – | – | – | – | – | GI50 ([6]; growth inhibition, semiquantitative, read-out: GI50 MV4:11): < 1 µM; GI50 ([7]; growth inhibition, semiquantitative, read-out: GI50 MDA-MB-231): 10 to 100 µM; GI50 ([8]; growth inhibition, semiquantitative, read-out: GI50 SW620): 10 to 100 µM; GI50 ([9]; growth inhibition, semiquantitative, read-out: GI50 Molm13): < 1 µM
CC(=O)O[C@H]1C(=O)[C@@]2(C)[C@H]([C@H](OC(=O)c3ccccc3)[C@]3(O)C[C@H](OC(=O)[C@H](O)[C@@H](NC(=O)c4ccccc4)c4ccccc4)C(C)=C1C3(C)C)[C@]1(OC(C)=O)CO[C@@H]1C[C@@H]2O [Taxol, paclitaxel, reference compound] | – | – | – | – | – | – | – | – | GI50 ([1]; Homo sapiens, SW-620): 0.005 µM; GI50 [11]: 0.005 µM
Cn1c(C(N)=O)cc2c1-c1ccncc1OC2(C)C [Example 22] | 8.70 | 7.06 | 8.85 | – | – | – | – | – | GI50 ([6]; Homo sapiens, MV4-11, read-out: GI50 MV4:11): < 1 µM; GI50 ([7]; Homo sapiens, MDA-MB-231, read-out: GI50 MDA-MB-231): 1 to 10 µM; GI50 ([8]; Homo sapiens, SW-620, read-out: GI50 SW620): 10 to 100 µM; GI50 ([9]; Homo sapiens, MOLM-13, read-out: GI50 Molm13): 1 to 10 µM
Cn1c(C(N)=O)cc2c1-c1ccncc1OC21CCCCC1 [Example 83] | 9.56 | 8.01 | 8.85 | > 6.30 | < 1 µM | 1 to 10 µM | 1 to 10 µM | < 1 µM | –
NC(=O)c1cc2c(n1CCF)-c1ccncc1OC21CCC1 [Example 76] | 9.58 | 7.62 | 9.08 | > 6.30 | < 1 µM | 1 to 10 µM | 1 to 10 µM | < 1 µM | –

Reference: patent US10208056B2, “Condensed tricyclic compounds as protein kinase inhibitors” (FUNDACIÓN DEL SECTOR PÚBLICO ESTATAL CENTRO NACIONAL DE …, priority 2015, dated 2019)
